Experiments:
[1] = Clinical study comparing bio-availability of two amlodipine formulations (with and without piperine); format: in vivo, human (healthy volunteers); conditions: with vs without piperine; amlodipine 10 mg, piperine 5 mg, hard gelatin capsules; 12 healthy volunteers
Method: Dosage Form: Hard gelatin capsules
Amlodipine and piperine were milled. The two components were blended together.
The homogenecity of five random samples of the mixture was confirmed from reproducible analysis. The formulation was then encapsulated in hard gelatin capsule in hand-operated capsule filling machine.
To compare the bio-availability of two formulations containing amlodipine (with and without piperine) a clinical study was conducted in 12 healthy volunteers.

[2] = Absorption of certain drugs through gastro-intestinal membranes; parameters: species or system human; conditions: through membranes of gastro-intestinal tract
[3] = combined with known anti-tuberculosis and/or anti-leprosy drugs; cited from earlier work
[4] = test system: natural immune mechanism of the body; assay: Stimulation of natural immune mechanism / antibody production; parameters: species or system human
[5] = cited from earlier work
[6] = Retention of certain drugs in the body; parameters: species or system human; conditions: combined with piperine
serum proteins = assay: Binding of the serum proteins; parameters: species or system human; conditions: combined with drug
[7] = Intrinsic pharmaceutical or medicinal properties of piperine; conditions: piperine alone
[8] = Clinical trial comparing bio-availability of two pentazocine formulations (with and without piperine); format: in vivo, human (healthy volunteers); conditions: with vs without piperine; pentazocine 25 mg, piperine 5 mg, hard gelatin capsules; 12 healthy volunteers
Method: Pentazocine -- -- 25 mg.
Dosage Form: Hard gelatin capsules.
Both pentazocine and piperine were milled and were then blended together. With repeated sieving, both the components were mixed to a homogenous mixture. Five samples of mixtures were randomly selected and their homogenecity was confirmed by reproducible analysis. With the help of hand-operated capsule filling machine, the formulation was encapsulated in hard gelatin capsule.
A clinical trial was conducted in 12 healthy volunteers in order to compare the bio-availability of two formulations containing pentazocine (with and without piperine).

## CCOC(=O)C1=C(COCCN)NC(C)=C(C(=O)OC)C1c1ccccc1Cl (stereo not shown) [Amlodipine]
[1]
  blood levels of the active ingredient amlodipine: increased blood levels

## O=C(/C=C/C=C/c1ccc2c(c1)OCO2)N1CCCCC1 [Piperine]
[2]
  absorption of certain drugs: increase the absorption of certain drugs
[3]
  therapeutic efficacy of anti-tuberculosis and/or anti-leprosy drugs: increased therapeutic efficacy
[4]
  stimulation of natural immune mechanism, production of antibodies against microbial infections: stimulate the natural immune mechanism of the body so as to enhance the production of antibodies against microbial infections
[5]; benzene, chloroform, ether, ethyl acetate, dichloromethane, alcohol, acetic acid
  solubility in organic solvents: soluble in benzene, chloroform, ether, ethyl acetate, dichloromethane, alcohol, acetic acid
[5]; water, petroleum ether
  solubility in water and petroleum ether: insoluble in water, and petroleum ether
[6]
  retention of certain drugs in the human body: retain certain drugs when combined with it in the human body for a longer period of time
Serum proteins
  binding of the serum proteins: increase the binding of the serum proteins
[7]
  pharmaceutical or medicinal properties of piperine as such: does not have any pharmaceutical or medicinal properties

## CC(C)=CCN1CCC2(C)c3cc(O)ccc3CC1C2C (stereo not shown) [pentazocine]
[8]
  blood levels of the active ingredient pentazocine: increased blood levels
